This assay deals with T1, γ-secretase (Homo sapiens, UniProt P49768).
T1 construct: endogenous in cells; host or cells: cells transfected with α-/β-CTF-Citrine constructs
The assay is described as follows: Subcellular localization of Citrine-labeled α-CTF/β-CTF constructs. The settings on record: Hek 293 cells transfected with α-CTF or β-CTF Citrine constructs. In kind it is cell-based. An excerpt: In a first step, the CTF constructs alone were transfected, without any additional influence on subcellular localization and an entirely homogeneous distribution of Citrine fluorescence throughout the cell was observed. Like APP, these constructs first require cleavage of the signal peptide by Signal Peptidase. However, these “precleaved” CTFs never require ectodomain-shedding in the conventional sense of α- or β-secretase cleavage, which is time consuming not only because of the cleavage step alone, but because of the protein trafficking required to make APP accessible to the secretases. PS cleavage was therefore assumed to take place much more rapidly than is the case for wtAPP, whereupon the same experiments were performed with γ-secretase inhibitor L-685,458 aiming at prolonging the half-life of the uncleaved CTFs. […] Apart from this stabilization, however, no obvious difference was discerned between the subcellular localization of the two constructs.
Subcellular protein distribution of fluorescently tagged proteins or proteins stained as described supra was analyzed on a Leica TCS/SP2 confocal microscope. Pictures were acquired at a resolution of 1024×1024 using the 63×H2O immersion objective. Typically, 5-8 z-axis sections were recorded across the entire height of embedded cells so that typical section separations were 0.5 μm. […]

The structures appear in SMILES notation.

Turning to `CC(C)C[C@H](NC(=O)[C@H](Cc1ccccc1)C[C@@H](O)[C@H](Cc1ccccc1)NC(=O)OC(C)(C)C)C(=O)N[C@@H](Cc1ccccc1)C(N)=O` [L-685,458], the “subcellular localization of uncleaved CTF-Citrine” value is “accumulation in ER and Golgi was observed”.

These data come from US20100169988A1, “MEANS AND METHODS FOR ISOLATING AND DETERMINING NOVEL TARGETS FOR THE TREATMENT OF NEURODEGENERATIVE, NEUROLOGICAL OR NEUROPSYCHIATRIC DISORDERS AND COMPOSITIONS COMPRISING THE SAME” (priority 2006, published 2010).
